Measurements as given in patent US20020147353A1, “Novel flavonoids” (Vereniging christelijk wetenschappelijk anderwijs, priority 1999, published 2002).

Key:
[1] = tested on: doxorubicin-induced cardiotoxicity; experiment: Protection against doxorubicin-induced cardiotoxicity in vivo (ST-interval in ECG, telemetry); settings: mice
[2] = tested on: isolated mouse left atrium; experiment: Isolated mouse left atrium model: protection against doxorubicin-induced negative inotropy; settings: 250 μM flavonoid with 35 μM doxorubicin, electrically paced mouse left atrium
Description: Experiment 3: Isolated Mouse Left Atrium Model
In order to determine the cardioprotective properties of the compounds in vitro, the protection against doxorubicin-induced negative inotropy was studied, using the isolated mouse left atrium model.
The example compounds were tested for their protective effect on the negative inotropic action of doxorubicin on the isolated mouse left atrium. The testing model has been described earlier (de Jong et al.Ress Comm Chem Pathol Pharmacol 68, 275-289 (1990). In short, left atria were isolated from male Balb/c mice (18-22 g) and stimulated with square wave pulses of 3 ms duration at a frequency of 4 Hz. Incubation with […] doxorubicin causes a decrease in inotropy of 50% (after 1 h). Atria were incubated with 35 μM doxorubicin and 250 μM flavonoid. Inotropy was measured and expressed as % basal contractile force relative to t=0.

[3] = tested on: iron/ascorbate induced lipid peroxidation; experiment: Lipid peroxidation (LPO) model, heat-treated hepatic microsomes, TBA reactive substances; assay type: biochemical; settings: rat hepatic microsomes, reaction started with 10 uM FeSO4; mean ± s.e.m., n = 3-5
Description: Experiment 1: Lipid Peroxidation Model
Preparation of hepatic microsomes.
Male Wistar rats (200-220 g) obtained from Harlan Nederland B.V. (Horst, The Netherlands) were sacrificed by decapitation. Livers were removed and homogenized in ice-cold phosphate buffer (50 mM+0.1 mM EDTA, pH=7.4, 1:2 w/v). The homogenate was centrifuged at 10 000× g (20 min at 4° C.). Subsequently, the supernatant was centrifuged at 100 000× g for 60 min (4° C.). The pellet was resuspended in phosphate buffer and centrifuged again at 100 000× g (60 min, 4° C.). Finally the microsomal pellet was resuspended in phosphate buffer (2 g liver/ml) and 1 mL aliquots were stored at −80° C.
Microsomes were thawed and resuspended in ice-cold Tris-HCl buffer (50 mM, pH=7.4 at 37° C.) and washed by centrifugation. The pellet was resuspended in 2 mL 50 mM Tris-HCl buffer and heated to 100° C. for at least 2 min to remove all enzymatic factors just before resuspending and diluting it in ice-cold Tris buffer to 1.5 mg/mL.
Stock solutions of the flavonoids were freshly prepared in nitrogen-purged DMSO and nanopure water (1:1) just before use. The reaction was started by adding 10 uM freshly prepared FeSO4 in nitrogen-purged nanopure water. LPO was assayed by measuring thiobarbituric acid (TBA) reactive substances. At t=0, 5, 10, 15, 30, 45 and 60 min an 0.3 mL aliquot of the incubation was mixed with 2 mL of an ice-cold TBA-trichloroacetic acid-HCl-butylhydroxytoluene (BHT) solution to stop the reaction. After heating and centrifugation the absorbance at 535 vs 600 nm was determined. The TBA-trichloroacetic acid-HCl-butylhydroxytoluene solution was prepared by dissolving 41.6 mg TBA/10 ml trichloroacetic acid (16.8% w/v in 0.125 N HCl). To 10 ml TBA-trichloroacetic acid-HCl 1 ml BHT (1.5 mg/ml ethanol) was added.
The IC50 was determined by measuring the % LPO inhibition at several concentrations and interpolating the 50% inhibition point.

[4] = tested on: alloxan-induced diabetic rats; experiment: Antidiabetic action in alloxan-induced diabetic rats; assay type: in vivo; settings: 68 mg/kg i.p. for two weeks
Description: In order to study the antidiabetic action of compound 9i (see FIG. 1 and the section “syntheses” above), the compound was studied in alloxan-induced diabetic rats. […] These diabetic rats were subsequently treated with compound 9i for two weeks (at 68 mg/kg, i.p.).

[5] = TEAC model (Trolox equivalent antioxidant capacity); settings: concentration of Trolox equivalent to 1 mM test compound; mean ± S.D., n = 3-5
Description: A solution of 2,2′-azino-bis(3-ethylbenzthiazoline-6-sulfonic acid) (1.23 mg/mL) and azobisamidinepropane (3.96 mg/mL) in 50 mM phosphate buffer (pH=7.4) was heated at 70° C. for 20 min. The amount of ABTS radicals was measured by determination of the absorbance at 734 nm.
Stock solutions of the flavonoids were freshly prepared in nitrogen-purged DMSO and nanopure water (1:1) just before use. A calibration curve of Trolox ((+/−)-6-hydroxy-2,5,7,8-tetramethyl-chroman-2-carboxylic acid) was made in a concentration range from 0 to 20 μM. A mixture of 50 μL test compound and 950 μL ABTS^−+ solution was incubated at 37° C. for 5 min. Subsequently the absorbance at 734 nm was determined on a UV/VIS Spectrophotometer.
The antioxidant-induced decrease in absorbance is directly related to the antioxidant capacity of the compound (solution) being tested.
The Trolox equivalent antioxidant capacity (TEAC) is defined as the concentration (mM) of Trolox having an antioxidant capacity equivalent to 1 mM of the test compound.

[6] = tested on: guinea pigs exposed to ozone; experiment: Ozone exposure model for COPD, pulmonary neutrophil influx; assay type: in vivo; settings: 1 ppm ozone 12 h then 12 h air, 68 mg/kg i.p.
From the text: Chronic Obstructive Pulmonary Disease is associated with oxidative stress. There are strong indications that antioxidant therapy may be beneficial in COPD ([…] et al., Am. J. Resp. Crit. Care Med. 156, 341-358 (1997)). Not only the number of exacerbations decreases, but also the progressive decrease in lung function becomes less severe under treatment with an antioxidant like N-acetylcysteine. An animal model for COPD is ozone exposure. In contrast to asthma, COPD is characterized by a neutrophil influx. […] We studied the protective effect of compound 9i in this ozone exposure model. […] To this end compound 9[…].) was given (24 h, 12 h before ozone exposure and daily during the exposure to ozone/air) to guinea pigs that were exposed to 1 ppm ozone for 12 h which was followed by 12 h of air.

A2780 cells = experiment: Interference with antitumor activity of doxorubicin, MTT assay; assay type: cell-based; settings: A2780, 100 μM, 96 h
Description: (§1) Experiment 5: Interference with the Antitumor Activity of Doxorubicin Because of the possible use of these compounds as adjuvants in the chemotherapy, it was checked whether the compounds influenced the negative effect of doxorubicin on cell growth. […] This observation further underlined the use of these compounds as adjuvant therapy in the protection of the side effects of cytostatics. On day 0 cultured OVCAR-3, MCF-7 and A2780 cells were plated at a density of 5000 cells/well for OCAR-3 and MCF-7 and 3000 cells/well for A2780 cells. […] After incubation of 96 h at 37° C. (day 5), growth inhibitory effects were evaluated using the standard MTT assay.

MCF-7 cells = experiment: as above; assay type: cell-based; settings: MCF-7, 100 μM, 96 h
Description: as §1

OVCAR-3 cells = experiment: as above; assay type: cell-based; settings: OVCAR-3, 100 μM, 96 h
Description: as §1

IC50 [3]: 2.8 ± 0.9 µM
SMILES: O=c1c(O[C@@H]2O[C@H](CO)[C@@H](O)[C@H](O)[C@H]2O)c(-c2ccc(O)c(O)c2)oc2ccccc12 [Compound 9i, 3′,4′-dihydroxy-3-glucoseflavone]
potency as protector against doxorubicin-induced cardiotoxicity relative to monoHER ([1]; 68 mg/kg i.p.): at least 5 times
protection against doxorubicin-induced cardiotoxicity in vivo (in words) ([1]; 9i 68 mg/kg i.p., doxorubicin 4 mg/kg i.v. weekly, 6 weeks): significantly potent activity
Atrium protection (250 μM) [2]: 46%
glucose plasma level compared to controls [4]: decrease in glucose plasma level
TEAC [5]: 4.9 ± 0.3 mM
pulmonary neutrophil influx [6]: could be prevented
9i 100 μM growth % (A2780 cells): 97.7%
9i 100 μM growth % (MCF-7 cells): 83.8%
9i 100 μM growth % (OVCAR-3 cells): 86.8%
